The structures appear in SMILES notation.

The experiment deals with recombinant β-secretase (Homo sapiens, UniProt P56817). The experiment is described as follows: β-secretase. It counts as biochemical.
Chain of recombinant β-secretase (P56817 46-501): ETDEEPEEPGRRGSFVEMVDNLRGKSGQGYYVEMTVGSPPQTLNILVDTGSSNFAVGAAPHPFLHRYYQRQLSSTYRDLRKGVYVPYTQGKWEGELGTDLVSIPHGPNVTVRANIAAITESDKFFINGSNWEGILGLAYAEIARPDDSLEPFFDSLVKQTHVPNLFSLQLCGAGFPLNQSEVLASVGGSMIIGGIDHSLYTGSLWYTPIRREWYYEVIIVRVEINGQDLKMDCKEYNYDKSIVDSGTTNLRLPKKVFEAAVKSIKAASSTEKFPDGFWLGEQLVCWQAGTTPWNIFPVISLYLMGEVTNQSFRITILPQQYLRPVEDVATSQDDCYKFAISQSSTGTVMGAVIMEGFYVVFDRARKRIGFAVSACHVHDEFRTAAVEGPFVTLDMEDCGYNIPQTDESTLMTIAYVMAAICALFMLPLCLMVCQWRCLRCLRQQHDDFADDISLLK

For `Cc1cc(C)n(C[C@@H](C)C(=O)N[C@@H](CNC(=O)OC(C)(C)C)C(=O)N[C@@H](CC(C)C)[C@@H](O)C[C@@H](C)C(=O)N[C@H](C(=O)NCC(C)C)C(C)C)n1` [Inhibitor 3b], the “drop in potency with respect to 3a” value (ratio of BACE1 Ki to that of 3a) was about 40 fold.
Regarding `Cc1csc(C[C@H](C)C(=O)N[C@@H](CNC(=O)OC(C)(C)C)C(=O)N[C@@H](CC(C)C)[C@@H](O)C[C@@H](C)C(=O)N[C@H](C(=O)NCC(C)C)C(C)C)n1` [Inhibitor 4c], where the note is “ratio of BACE1 potency to that of 4a”, the “improvement over inhibitor 4a” value is given as “over 120 fold”.
